Data set [1] addresses T1, wild type AXL (wtAXL) receptor tyrosine kinase (Homo sapiens, UniProt P30530).
T1 construct: WtAXL cDNA was cloned into vector pLXSN(ESK) and transfected into Phoenix E packaging cells; expressed in transfected cells; host or cells: NIH3T3 N7 (mouse fibroblasts), retrovirally infected, clone 22
T1 sequence (P30530 26-894): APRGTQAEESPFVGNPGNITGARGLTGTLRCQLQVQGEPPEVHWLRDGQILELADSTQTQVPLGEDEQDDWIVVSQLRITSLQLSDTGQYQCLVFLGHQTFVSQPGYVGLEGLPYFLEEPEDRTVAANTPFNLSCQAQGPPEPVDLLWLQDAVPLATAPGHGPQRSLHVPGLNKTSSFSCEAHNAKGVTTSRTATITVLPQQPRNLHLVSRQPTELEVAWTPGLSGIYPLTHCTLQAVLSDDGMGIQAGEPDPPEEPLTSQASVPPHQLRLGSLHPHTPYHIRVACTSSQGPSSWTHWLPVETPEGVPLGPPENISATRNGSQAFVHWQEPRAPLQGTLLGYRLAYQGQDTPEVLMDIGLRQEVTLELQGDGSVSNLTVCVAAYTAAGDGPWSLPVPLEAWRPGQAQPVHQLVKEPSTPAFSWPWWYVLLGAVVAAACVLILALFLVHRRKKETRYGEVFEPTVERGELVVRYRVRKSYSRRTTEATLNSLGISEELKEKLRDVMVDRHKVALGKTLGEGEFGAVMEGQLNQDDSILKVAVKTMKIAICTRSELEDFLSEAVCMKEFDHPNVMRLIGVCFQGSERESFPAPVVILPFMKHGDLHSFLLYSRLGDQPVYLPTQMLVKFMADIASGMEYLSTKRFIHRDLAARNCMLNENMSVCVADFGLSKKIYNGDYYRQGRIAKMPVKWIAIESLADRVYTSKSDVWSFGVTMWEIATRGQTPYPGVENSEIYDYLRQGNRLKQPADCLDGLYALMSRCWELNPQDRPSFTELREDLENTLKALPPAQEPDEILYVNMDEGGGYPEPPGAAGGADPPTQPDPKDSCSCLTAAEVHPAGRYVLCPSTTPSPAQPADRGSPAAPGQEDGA
The data set is described as follows: NIH-3T3-AXL cellular kinase assay (pY-AXL-ELISA). It is filed as cell-based. Conditions: NIH-3T3-AXL (clone 22) cells, serum depleted, compounds 1 h; Table Ia. How it is done: WtAXL cDNA was cloned into vector pLXSN(ESK) and transfected into Phoenix E packaging cells. The viral supernatant was collected and used to infect target cells NIH3T3 N7. Monoclonal NIH3T3-AXL cell lines stably expressing wtAXL were generated by selecting retrovirally infected cells in medium containing puromycin (2 μg/ml) and subsequent clonal separation.
Serial dilutions of compounds were added, and the cells were further incubated for 1 h. Cells were washed with PBS and lysed on ice in 500 μl lysis buffer (50 mM HEPES (pH 7.5), 150 mM NaCl, 1 mM EGTA, 10% Glycerol, 1% Triton X-100, 100 mM NaF, 10 mM Na4P2O7.10H2O, 1 mM Na3VO4, 1 mM phenylmethylsulfonyl fluoride, and […]) for 15 min. The cell lysate were used for phosphotyrosine AXL enzyme-linked immunosorbant assay (pY-AXL-ELISA). […] Subsequently 96-well plates were blocked with PBS-0.05% Tween®20+10% FBS for 4 h at 37° C. Plates were washed 5 times with PBS-0.05% Tween®20 and 95 μl of lysate was transferred per well for incubation overnight at 4° C. Plates were washed 5 times with PBS-0.05% Tween®20 (Sigma, Steinheim, Germany). For detection of phosphorylated tyrosine we used homemade biotynilated 4G10-antibody (0.5 μg/ml) in PBS-0.05% Tween®20+10% FBS (100 μl/well) and incubated the 96-well plate for 2 h at room temperature. The anti-phosphotyrosine mouse monoclonal antibody 4G10 was biotynilated with Sulfo-NHS®-Biotin according to the suppliers protocol (Pierce, Rockford, Ill., USA) and purified by Mirco Bio-Spin 6 Chromatograpy Columns (BIO RAD Laboratories, Inc., Hercules, Calif., USA) using PBS as diluent. Plates were washed 5 times with PBS-0.05% Tween®20. For biding to biotin Alkaline Phosphatase Conjugated Strepavidin SA110 (Millipore, Billerica, Mass., USA) (1:4000) was used in PBS-0.05% Tween20+10% FBS (100 μl/well) and incubated for 30 min at room temperature. Plates were washed 5 times with PBS-0.05% Tween20. For fluorimetric detection of alkaline phosphatase AttoPhos Substrate Set (Roche diagnostics GmbH, Mannheim, Germany) was used (100 μl/well). The fluorimetric signal was quantified after 90 min at 430/560 nm wavelength using a TECAN Ultra Evolution plate reader (Tecan Deutschland GmbH, Crailsheim, Germany).
For orientation: An ELISA detects its analyte on a solid surface through an enzyme-linked reagent.

The test system of data set [2] is Hs578T. The data set is described as follows: Cell vitality assay (ATP assay, CellTiter-Glo). The settings on record: Homo sapiens, Hs-578T; HS578T cell line, 72 h; Table Ib; read-out: IC50 ATP-Assay HS578T after 72 h. It counts as cell-based. The essentials: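 1000 cells/well were exposed to compound at 12.5 μM down to 0.195 μM (twofold steps) or DMSO for 72 h. ATP was then measured by luminescence after 10 min reagent lysis at room temperature. IC50 was taken as the concentration giving 50% of the DMSO-control ATP level.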
A general note: Cellular ATP, detected with luciferase, serves as a proxy for viable cell number.

Data set [3] concerns Hs578T. The data set can be described thus: Wound healing migration assay. It is filed as cell-based. The settings on record: Homo sapiens, Hs-578T; HS578T cell line; Table Ib. The gist of the method: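 Cells seeded at 150000/24 well, grown to monolayer overnight, scratched with a pipette tip, then treated with compound at 12.5, 6.25 or 3.125 μM versus DMSO. Stopped by crystal violet fixation at 48-72 h once control wounds closed; IC50 taken as 50% wound size between t0 and t48 or t72.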

Data set [4] concerns Hs578T. The data set can be described thus: Matrigel outgrowth assay/branching assay. It counts as cell-based. The settings on record: Homo sapiens, Hs-578T; HS578T cell line; Table Ib; read-out: Total branching inhibition in Matrigel HS578T. The essentials:
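Read-out: microscopic images of invasive branching structures at 48 h, 72 h and 96 h. Cells sat on a 3 mg/ml Matrigel layer (set 1 h, 37° C) with compound at 3.125, 1.56 and 0.78 μM or DMSO. A concentration counts as positive only with complete branching inhibition.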

Bounds are passed on as bounds.

Usually melting point stands for the temperature of the solid-liquid transition.

For the compound `COc1cc2c(Oc3ccc(NS(=O)(=O)c4ccc(C)s4)cc3F)ccnc2cc1OCCCN1CCCC(C)C1` (stereo not drawn) [Example 62, 5-Methyl-thiophene-2-sulfonic acid (3-fluoro-4-{6-methoxy-7-[3-(3-methyl-piperidin-1-yl)-propoxy]-quinolin-4-yloxy}-phenyl)-amide], the melting point fell in the range of 99 to 101 °C. In data set [1], this compound yielded an IC50 of less than 0.5 µM. Also, in the data set with Hs578T [2], the IC50 was not above 12.5 µM. In the data set with Hs578T [3], this compound yielded an IC50 of 12.5 to 50 µM. In the data set with Hs578T [4], the IC50 is 10 to 25 µM.
As for `COc1cc2c(Oc3ccc(NS(=O)(=O)c4c(Cl)csc4Cl)cc3F)ccnc2cc1OCCCN1CCCC(C)C1` (stereo not drawn) [Example 64, 2,4-Dichloro-thiophene-3-sulfonic acid (3-fluoro-4-{6-methoxy-7-[3-(3-methyl-piperidin-1-yl)-propoxy]-quinolin-4-yloxy}-phenyl)-amide], the melting point is 119 to 121 °C. In addition, the IC50 in data set [1] was less than 0.5 µM. The IC50 with Hs578T [2] is not above 12.5 µM. Moreover, in the data set with Hs578T [3], the IC50 was not above 12.5 µM. The IC50 in the data set with Hs578T [4] lay in the range of 10 to 25 µM.
For `COc1cc2c(Oc3ccc(NS(=O)(=O)c4ccsc4)cc3F)ccnc2cc1OCCCN1CCCC(C)C1` (stereo not drawn) [Example 65, Thiophene-3-sulfonic acid (3-fluoro-4-{6-methoxy-7-[3-(3-methyl-piperidin-1-yl)-propoxy]-quinolin-4-yloxy}-phenyl)-amide], the melting point is 174 to 176 °C. Besides, in data set [1], the IC50 is less than 0.5 µM. Moreover, in the data set with Hs578T [2], the IC50 is not above 12.5 µM. This compound also returned an IC50 with Hs578T [3] not above 12.5 µM. Moreover, the IC50 in the data set on Hs578T [4] is 10 to 25 µM.
Compound `COc1cc2c(Oc3ccc(NS(=O)(=O)c4csc5ccccc45)cc3F)ccnc2cc1OCCCN1CCCC(C)C1` (stereo not drawn) [Example 67, Benzo[b]thiophene-3-sulfonic acid (3-fluoro-4-{6-methoxy-7-[3-(3-methyl-piperidin-1-yl)-propoxy]-quinolin-4-yloxy}-phenyl)-amide] gave a melting point of 126 to 128 °C. The compound further yielded an IC50 in data set [1] of less than 0.5 µM. Moreover, in the data set with Hs578T [2], the IC50 is not above 12.5 µM. The compound also yielded an IC50 in the data set on Hs578T [3] not above 12.5 µM. For the same compound, in the data set with Hs578T [4], the IC50 was not above 10 µM.
In turn, `COc1cc2c(Oc3ccc(NS(=O)(=O)c4cc(Cl)cc(Cl)c4OC)cc3F)ccnc2cc1OCCCN1CCOCC1` [Example 76, 3,5-Dichloro-N-{3-fluoro-4-[6-methoxy-7-(3-morpholin-4-yl-propoxy)-quinolin-4-yloxy]-phenyl}-2-methoxy-benzenesulfonamide] displayed a melting point of 189 to 191 °C. The IC50 in data set [1] was less than 0.5 µM. Also, the IC50 with Hs578T [2] was not above 12.5 µM. The IC50 in the data set with Hs578T [3] lay in the range of 12.5 to 50 µM. For the same compound, in the data set on Hs578T [4], the IC50 was 10 to 25 µM.
The like results for `COc1cc2c(Oc3ccc(NS(=O)(=O)c4ccccc4C(F)(F)F)cc3C)ccnc2cc1OCCCN1CCC(C)CC1` [Example 89, N-(4-{6-Methoxy-7-[3-(4-methyl-piperidin-1-yl)-propoxy]-quinolin-4-yloxy}-3-methyl-phenyl)-2-trifluoromethyl-benzenesulfonamide] were, in that order, 165 to 167 °C, less than 0.5 µM, not above 12.5 µM, not above 12.5 µM and not above 10 µM.
The like results for `COc1cc2c(Oc3ccc(NS(=O)(=O)c4cc(Cl)ccc4Cl)cc3F)ccnc2cc1OCCN1CCOCC1` [Example 106, 2,5-Dichloro-N-{3-fluoro-4-[6-methoxy-7-(2-morpholin-4-yl-ethoxy)-quinolin-4-yloxy]-phenyl}-benzenesulfonamide] were, in that order, 194 to 196 °C, less than 0.5 µM, not above 12.5 µM, 12.5 to 50 µM and 10 to 25 µM.
For `COc1cc2c(Oc3ccc(NS(=O)(=O)c4ccccc4Cl)cc3F)ccnc2cc1OCCN1CCOCC1` [Example 108, 2-Chloro-N-{3-fluoro-4-[6-methoxy-7-(2-morpholin-4-yl-ethoxy)-quinolin-4-yloxy]-phenyl}-benzenesulfonamide] the same measures were 180 to 181 °C, less than 0.5 µM, not above 12.5 µM, 12.5 to 50 µM and 10 to 25 µM.
Compound `COc1cc2c(Oc3ccc(NS(=O)(=O)c4ccccc4[N+](=O)[O-])cc3F)ccnc2cc1OCCN1CCOCC1` [Example 109, N-{3-Fluoro-4-[6-methoxy-7-(2-morpholin-4-yl-ethoxy)-quinolin-4-yloxy]-phenyl}-2-nitro-benzenesulfonamide] displayed a melting point of 129 to 131 °C. The compound also came in with an IC50 in data set [1] of less than 0.5 µM. Besides, the IC50 in the data set on Hs578T [2] was not above 12.5 µM. Moreover, the IC50 in the data set with Hs578T [3] fell in the range of 12.5 to 50 µM. Further, the IC50 with Hs578T [4] lay within 10 to 25 µM.
The like results for `COc1cc2c(Oc3ccc(NS(=O)(=O)c4ccccc4F)cc3Cl)ccnc2cc1OCCCN1CCN(C)CC1` [Example 111, N-(3-Chloro-4-{6-methoxy-7-[3-(4-methyl-piperazin-1-yl)-propoxy]-quinolin-4-yloxy}-phenyl)-2-fluoro-benzenesulfonamide] were, in that order, 170 to 171 °C, less than 0.5 µM, not above 12.5 µM, not above 12.5 µM and not above 10 µM.
The like results for `COc1cc2c(Oc3ccc(NS(=O)(=O)c4csc5ccccc45)cc3F)ccnc2cc1OCCCN1CCCCC1` [Example 113, Benzo[b]thiophene-3-sulfonic acid {3-fluoro-4-[6-methoxy-7-(3-piperidin-1-yl-propoxy)-quinolin-4-yloxy]-phenyl}-amide] were, in that order, 128 to 130 °C, less than 0.5 µM, not above 12.5 µM, not above 12.5 µM and not above 10 µM.
For `COc1cc2c(Oc3ccc(NS(=O)(=O)c4csc5ccccc45)cc3F)ccnc2cc1OCCCN1CCOCC1` [Example 114, Benzo[b]thiophene-3-sulfonic acid {3-fluoro-4-[6-methoxy-7-(3-morpholin-4-yl-propoxy)-quinolin-4-yloxy]-phenyl}-amide] the same measures were 196 to 197 °C, less than 0.5 µM, not above 12.5 µM, 12.5 to 50 µM and 10 to 25 µM.

The values above are taken from patent publication US9169241B2, “Quinolinyloxyphenylsulfonamides” (Max-Planck-Gesellschaft Zur Forderung der Wissenschaften …, priority 2009, dated 2015).
